These results are taken from patent US20060063711A1, “Use of sglt homolog” (priority 2002, published 2006).

Structures are written as SMILES.

In experiment [1] the test system is rat SGLT homolog (rSGLTh). Kind of experiment: α-methyl glucose uptake in CHO cells expressing rSGLTh. The experiment is classed as cell-based. Particulars: control = NMDG without NaCl. The method, then:
In accordance with the procedures described in Example 4 of WO 02/53738, the CHO cell lines expressing the human SGLT homolog (hSGLTh), mouse SGLT homolog (mSGLTh), rat SGLT homolog (rSGLTh), human SGLT1 (hSGLT1) and human SGLT2 (hSGLT2) were prepared, respectively, and used for experiments. The experimental uptake of α-methyl glucose, which is a glucose analog selectively taken up into the cells by SGLT, was carried out according to the method described in Am. J. Physiol., 270: G833-G843, 1996 and J. Clin. Invest., 93: 397-404, 1994. The cells were plated on 100 μl of DMEM containing 10% FBS charged in a 96-well plate in a cell density of 1×10^5 cells/well, followed by culturing overnight at 37° C. The cells were washed 3 times with 150 μl of a buffer solution (125 mM N-Methyl-D-Glucamine, 1.2 mM KH2PO4, 2.5 mM CaCl2, 1.2 mM MgSO4, 4 mM Glutamine, 10 mM HEPES (pH 7.2), 0.1 mg/ml BSA) and cultured for an hour in the same buffer solution to remove the remaining glucose. The buffer solution was removed and replaced with 90 μl of the same buffer solution or the buffer solution containing NaCl or NaCl+Phlorizin (Sigma) in place of N-Methyl-D-Glucamine (NMDG). […] The radioactivity of ^14C taken up into the cells was counted with 100 μl of a liquid scintillator added per well.

The target in the next experiment is T1, human SGLT2 (hSGLT2) (Homo sapiens, UniProt P31639).
T1 construct: expressed in transfected cells; host or cells: CHO cells
T1 sequence (P31639 1-672): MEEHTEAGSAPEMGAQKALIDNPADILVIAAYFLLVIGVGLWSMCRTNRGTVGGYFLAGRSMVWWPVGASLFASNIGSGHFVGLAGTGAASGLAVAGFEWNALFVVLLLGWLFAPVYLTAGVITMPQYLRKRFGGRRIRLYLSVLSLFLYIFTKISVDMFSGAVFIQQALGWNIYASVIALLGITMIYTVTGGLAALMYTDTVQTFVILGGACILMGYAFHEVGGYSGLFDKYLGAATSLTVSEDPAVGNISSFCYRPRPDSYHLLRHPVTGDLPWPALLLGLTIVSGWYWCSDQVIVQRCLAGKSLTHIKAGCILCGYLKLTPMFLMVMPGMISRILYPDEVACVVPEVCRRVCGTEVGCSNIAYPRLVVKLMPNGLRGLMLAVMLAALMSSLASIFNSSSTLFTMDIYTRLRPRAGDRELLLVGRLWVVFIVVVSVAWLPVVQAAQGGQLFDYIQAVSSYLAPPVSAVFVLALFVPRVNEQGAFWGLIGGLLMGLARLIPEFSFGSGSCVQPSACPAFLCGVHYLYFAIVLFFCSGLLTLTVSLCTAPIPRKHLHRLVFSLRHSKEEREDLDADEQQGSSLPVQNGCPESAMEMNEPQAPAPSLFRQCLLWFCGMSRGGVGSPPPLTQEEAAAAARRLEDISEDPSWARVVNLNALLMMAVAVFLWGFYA
Kind of experiment: α-methyl glucose uptake in CHO cells expressing hSGLT2. The experiment is classed as cell-based. As to conditions: control = NMDG without NaCl. The method, then:
The cells were plated on 100 μl of DMEM containing 10% FBS charged in a 96-well plate in a cell density of 1×10^5 cells/well, followed by culturing overnight at 37° C. […] The buffer solution was removed and replaced with 90 μl of the same buffer solution or the buffer solution containing NaCl or NaCl+Phlorizin (Sigma) in place of N-Methyl-D-Glucamine (NMDG). After one-hour incubation with 10 μl of 1 mM α-methyl glucose (containing 0.02 μCi of [^14C]-α-Methyl Glucose (Amersham Pharmacia Biotech)) per well, the cells were washed 3 times with 200 μl of chilled PBS buffer. The radioactivity of ^14C taken up into the cells was counted with 100 μl of a liquid scintillator added per well.

Turning to `O=C(CCc1ccc(O)cc1)c1c(O)cc(O)cc1O[C@@H]1O[C@H](CO)[C@@H](O)[C@H](O)[C@H]1O` [phlorizin], the “Uptake of α-Methyl Glucose (% based on Control Group)” value in experiment [1] (NaCl + 15 μM phlorizin) turned out to be 643 ± 76%; in experiment [1] (NaCl + 500 μM), 118 ± 6%; on human SGLT2 (hSGLT2) (NaCl + 3 μM phlorizin), 139 ± 23%; on human SGLT2 (hSGLT2) (NaCl + 100 μM phlorizin), 48 ± 8%.
